Columns and labels:
Type in all cases: in vivo
[1] = tested on: bermudagrass (Cynodon dactylon); test: Test B pre-/postemergence plant response
Method in brief: (§1)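 Test compounds, formulated in a non-phytotoxic solvent mixture with surfactant, are applied to the soil surface (loam and sand blend) right after seeding, or sprayed over plants at the 1- to 4-leaf stage grown in peat moss/vermiculite medium. After 13 to 15 days under glasshouse conditions, each species is scored visually from 0 (no effect) to 100 (complete control) against controls.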

[2] = tested on: cocklebur (Xanthium strumarium); test: Test B pre-/postemergence plant response
Method in brief: as §1

corn (Zea mays) = test: Test B pre-/postemergence plant response
Method in brief: as §1

[3] = tested on: giant foxtail (Setaria faberii); test: Test B pre-/postemergence plant response
Method in brief: as §1

[4] = tested on: green foxtail (Setaria viridis); test: Test B pre-/postemergence plant response
Method in brief: as §1

[5] = tested on: johnsongrass (Sorghum halepense); test: Test B pre-/postemergence plant response
Method in brief: as §1

kochia (Kochia scoparia) = test: Test B pre-/postemergence plant response
Method in brief: as §1

[6] = tested on: lambsquarters (Chenopodium album); test: Test B pre-/postemergence plant response
Method in brief: as §1

[7] = tested on: pigweed (Amaranthus retroflexus); test: Test B pre-/postemergence plant response
Method in brief: as §1

[8] = tested on: ragweed (common ragweed, Ambrosia elatior); test: Test B pre-/postemergence plant response
Method in brief: as §1

soybean (Glycine max) = test: Test B pre-/postemergence plant response
Method in brief: as §1

wild oat (Avena fatua) = test: Test B pre-/postemergence plant response
Method in brief: as §1

[9] = tested on: barnyardgrass (Echinochloa crus-galli); test: Test B flooded paddy test; conditions: for Plant response rating, Barnyardgrass: Flood (flooded paddy test), 13 to 15 days
Method in brief: (§2)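 Seedlings reaching 2 leaves are flooded 3 cm deep; test material is delivered to that water, which stays at the same depth. Plants remain in a greenhouse 13–15 days and are then scored by eye versus controls from 0 to 100.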

[10] = tested on: ducksalad (Heteranthera limosa); test: Test B flooded paddy test; conditions: for Plant response rating, Ducksalad: Flood (flooded paddy test), 13 to 15 days
Method in brief: as §2

rice (Oryza sativa) = test: Test B flooded paddy test; conditions: for Plant response rating, Rice: Flood (flooded paddy test), 13 to 15 days
Method in brief: as §2

[11] = tested on: umbrella sedge (Cyperus difformis); test: Test B flooded paddy test; conditions: for Plant response rating, Sedge, Umbrella: Flood (flooded paddy test), 13 to 15 days
Method in brief: as §2

[12] = 250 g ai/ha, Preemergence, 0 to 100 scale
[13] = Postemergence, 31 g ai/ha, scale 0 to 100 (0 no effect, 100 complete control)
[14] = Postemergence, 62 g ai/ha, scale 0 (no effect) to 100 (complete control), 13 to 15 days
[15] = Postemergence, 250 g ai/ha, scale 0 to 100
[16] = Preemergence, 31 g ai/ha, scale 0 to 100 (0 no effect, 100 complete control)
[17] = Preemergence, 62 g ai/ha, scale 0 to 100, 0 no effect, 100 complete control
[18] = Preemergence, 125 g ai/ha, 0 to 100 scale
[19] = Postemergence, 125 g ai/ha, visual rating after 13 to 15 days, scale 0 (no effect) to 100 (complete control)
[20] = 250 g ai/ha, flooded paddy test, visual rating on 0 to 100 scale (0 no effect, 100 complete control) after 13 to 15 days
[21] = 31 g ai/ha, scale of 0 to 100 where 0 is no effect and 100 is complete control
[22] = 62 g ai/ha, scale 0 to 100, 0 is no effect, 100 is complete control
[23] = 125 g ai/ha, scale 0 to 100, 0 is no effect, 100 is complete control

5-[(2-hydroxy-6-oxo-1-cyclohexen-1-yl)carbonyl]-3-(2-methoxyethyl)-2-(3-thienyl)-4(3H)-pyrimidinone [Compound 97]
30: Plant response rating, Foxtail, Green [4, 12]
0: Plant response rating, Cocklebur [2, 16] | Plant response rating, Corn (corn (Zea mays); [12]) | Plant response rating, Corn (corn (Zea mays); [16]) | Plant response rating, Corn (corn (Zea mays); [17]) | Corn plant response rating (corn (Zea mays); [18]) | Plant response rating, Foxtail, Giant [3, 16] | Plant response rating, Foxtail, Giant [3, 17] | Foxtail, Giant plant response rating [3, 18] | Plant response rating, Foxtail, Green [4, 16] | Plant response rating, Foxtail, Green [4, 17] | Foxtail, Green plant response rating [4, 18] | Plant response rating, Johnsongrass [5, 13] | Plant response rating, Johnsongrass [5, 16] | Plant response rating, Kochia (kochia (Kochia scoparia); [16]) | Plant response rating, Oat, Wild (wild oat (Avena fatua); [13]) | Plant response rating, Oat, Wild (wild oat (Avena fatua); [16]) | Plant response rating, Oat, Wild (wild oat (Avena fatua); [17]) | Oat, Wild plant response rating (wild oat (Avena fatua); [18]) | Plant response rating, Flood, Barnyardgrass [9, 20] | Plant response rating, Barnyardgrass [9, 21] | Plant response rating, Barnyardgrass [9, 22] | Plant response rating, Barnyardgrass [9, 23] | Plant response rating, Ducksalad [10, 21] | Plant response rating, Flood, Rice (rice (Oryza sativa); [20]) | Plant response rating, Rice (rice (Oryza sativa); [21]) | Plant response rating, Rice (rice (Oryza sativa); [22]) | Plant response rating, Rice (rice (Oryza sativa); [23]) | Plant response rating, Sedge, Umbrella [11, 21]
15: Plant response rating, Cocklebur [2, 17] | Plant response rating, Corn (corn (Zea mays); [13]) | Plant response rating, Corn (corn (Zea mays); [14]) | Plant response rating, Kochia (kochia (Kochia scoparia); [14]) | Plant response rating, Kochia (kochia (Kochia scoparia); [19])
50: Plant response rating, Kochia (kochia (Kochia scoparia); [17])
98: Plant response rating, Cocklebur [2, 12] | Cocklebur plant response rating [2, 15] | Ragweed plant response rating [8, 15] | Plant response rating, Ragweed [8, 16] | Soybean plant response rating (soybean (Glycine max); [15])
20: Kochia plant response rating (kochia (Kochia scoparia); [15]) | Plant response rating, Oat, Wild (wild oat (Avena fatua); [19]) | Plant response rating, Ducksalad [10, 22]
60: Plant response rating, Johnsongrass [5, 19] | Johnsongrass plant response rating [5, 18] | Plant response rating, Soybean (soybean (Glycine max); [17])
40: Oat, Wild plant response rating (wild oat (Avena fatua); [15]) | Plant response rating, Sedge, Umbrella [11, 22]
70: Plant response rating, Bermudagrass [1, 13] | Plant response rating, Cocklebur [2, 13] | Plant response rating, Foxtail, Giant [3, 13] | Plant response rating, Foxtail, Green [4, 19] | Foxtail, Green plant response rating [4, 15]
5: Plant response rating, Oat, Wild (wild oat (Avena fatua); [14])
90: Plant response rating, Bermudagrass ([1]; Postemergence, 125 g ai/ha, scale 0 to 100 (0 no effect, 100 complete control), 13 to 15 days) | Plant response rating, Cocklebur [2, 14] | Plant response rating, Lambsquarters [6, 19] | Plant response rating, Ragweed [8, 19]
85: Plant response rating, Pigweed [7, 13] | Plant response rating, Pigweed [7, 14]
55: Plant response rating, Johnsongrass [5, 14] | Plant response rating, Flood, Sedge, Umbrella [11, 20] | Plant response rating, Sedge, Umbrella [11, 23]
25: Plant response rating, Foxtail, Green [4, 14]
100: Plant response rating, Bermudagrass [1, 12] | Bermudagrass plant response rating [1, 18] | Plant response rating, Kochia (kochia (Kochia scoparia); [12]) | Kochia plant response rating (kochia (Kochia scoparia); [18]) | Plant response rating, Lambsquarters [6, 12] | Plant response rating, Lambsquarters [6, 16] | Plant response rating, Lambsquarters [6, 17] | Lambsquarters plant response rating [6, 18] | Plant response rating, Pigweed [7, 12] | Pigweed plant response rating [7, 15] | Plant response rating, Pigweed [7, 16] | Plant response rating, Pigweed [7, 17] | Pigweed plant response rating [7, 18] | Plant response rating, Ragweed [8, 12] | Plant response rating, Ragweed [8, 17] | Ragweed plant response rating [8, 18]
65: Cocklebur plant response rating [2, 18] | Corn plant response rating (corn (Zea mays); [15]) | Soybean plant response rating (soybean (Glycine max); [18])
10: Plant response rating, Foxtail, Green [4, 13] | Plant response rating, Johnsongrass [5, 17] | Plant response rating, Kochia (kochia (Kochia scoparia); [13]) | Plant response rating, Soybean (soybean (Glycine max); [16]) | Plant response rating, Oat, Wild (wild oat (Avena fatua); [12])
75: Plant response rating, Bermudagrass [1, 14] | Plant response rating, Foxtail, Giant [3, 14] | Plant response rating, Johnsongrass [5, 12] | Johnsongrass plant response rating [5, 15] | Plant response rating, Ragweed [8, 13] | Plant response rating, Soybean (soybean (Glycine max); [12]) | Plant response rating, Ducksalad [10, 23]
80: Plant response rating, Bermudagrass [1, 17] | Plant response rating, Foxtail, Giant [3, 19] | Plant response rating, Lambsquarters [6, 13] | Plant response rating, Lambsquarters [6, 14] | Plant response rating, Ragweed [8, 14] | Plant response rating, Flood, Ducksalad [10, 20]
95: Bermudagrass plant response rating [1, 15] | Plant response rating, Cocklebur [2, 19] | Foxtail, Giant plant response rating [3, 15] | Lambsquarters plant response rating [6, 15] | Plant response rating, Pigweed [7, 19] | Plant response rating, Soybean (soybean (Glycine max); [13]) | Plant response rating, Soybean (soybean (Glycine max); [14]) | Plant response rating, Soybean (soybean (Glycine max); [19])
45: Plant response rating, Bermudagrass [1, 16] | Plant response rating, Corn (corn (Zea mays); [19]) | Plant response rating, Foxtail, Giant [3, 12]
